Laboratory results: patent publication US7723332B2, “Aryl sulfonamides useful for modulation of the progesterone receptor” (Wyeth LLC, priority 2007, dated 2010)

System: alkaline phosphatase activity in T47D cells
Assay: Effects of progestins and antiprogestins on alkaline phosphatase activity in T47D cells
Type: cell-based
Protocol: Effects of Progestins and Antiprogestins on Alkaline Phosphatase Activity in T47D Cells
This example was performed to identify progestins or antiprogestins by determining a compound's effect on alkaline phosphatase activity in T47D cells.
Culture medium: DMEM:F12 (1:1) (GIBCO, BRL) supplemented with 5% (v/v) charcoal stripped fetal bovine serum (not heat-inactivated), 100 U/mL penicillin, 100 μg/mL streptomycin, and 2 mM the GlutaMax™ reagent (GIBCO, BRL).
Alkaline phosphatase assay buffer: • I. 0.1M Tris-HCl, pH 9.8, containing 0.2% the Triton® X-100 reagent • II. 0.1 M Tris-HCl, pH 9.8, containing 4 mM p-nitrophenyl phosphate (Sigma).
Frozen T47D cells were thawed in a 37° C. water bath and diluted to 280,000 cells/mL in culture medium. To each well in a 96-well plate (Falcon, Becton Dickinson Labware), 180 μL of diluted cell suspension was added. Twenty μL of reference or test compounds diluted in the culture medium was then added to each well. When testing for progestin antagonist activity, reference antiprogestins or test compounds were added in the presence of 1 nM progesterone. The cells were incubated at 37° C. in a 5% CO2/humidified atmosphere for 24 hours. NOTE: For high throughput screening, one concentration of each compound was tested at 0.3 μg/mL. Based on an average molecular weight of 300 g/mol for the compounds in the library, the concentration was approximately 1 μM. Subsequently, active compounds were tested in dose response assays to determine EC50 and IC50.
At the end of treatment, the medium was removed from the plate. Fifty μL of assay buffer I was added to each well. The plates were shaken in a titer plate shaker for 15 minutes. 150 μL of assay buffer II was then added to each well. Optical density measurements were taken at 5 minute intervals for 30 minutes at a test wavelength of 405 nm.
For reference and test compounds, a dose response curve was generated for dose (X-axis) vs. the rate of enzyme reaction (slope) (Y-axis). Square root-transformed data was used for analysis of variance and nonlinear dose response curve fitting for both agonist and antagonist modes. Huber weighting was used to down-weight the effects of outliners. EC50 or IC50 values were calculated from the retransformed values. JMP software (SAS Institute, Inc.) was used for both one-way analysis of variance and non-4 linear dose response analysis in both single dose and dose response studies.
Progesterone and trimegestone are reference progestins known in the art and typically show an EC50 of about 0.1 nM to about 2.0 nM.

[1] = Homo sapiens, T47D alkaline phosphatase assay, antagonist mode in the presence of 1 nM progesterone, 24 hours

| IC50 [1] | Structure (SMILES) | further results |
| --- | --- | --- |
| 25.9 nM | CN(C)c1cc(-c2ccc(C#N)n2C)ccc1S(=O)(=O)N(C)C [Example 58, 4-(5-cyano-1-methyl-1H-pyrrol-2-yl)-2-(dimethylamino)-N,N-dimethylbenzenesulfonamide] |  |
| 36.1 nM | CNS(=O)(=O)c1cc(F)c(-c2ccc(C#N)n2C)cc1F [Example 59, 4-(5-cyano-1-methyl-1H-pyrrol-2-yl)-2,5-difluoro-N-methylbenzenesulfonamide] |  |
| 49.3 nM | CC(C)NS(=O)(=O)c1cc(F)c(-c2ccc(C#N)n2C)cc1F [Example 60, 4-(5-cyano-1-methyl-1H-pyrrol-2-yl)-2,5-difluoro-N-isopropylbenzenesulfonamide] |  |
|  | Cn1c(C#N)ccc1-c1cc(F)c(S(=O)(=O)NC2CC2)cc1F [Example 61, 4-(5-cyano-1-methyl-1H-pyrrol-2-yl)-N-cyclopropyl-2,5-difluorobenzenesulfonamide] | Active Dose (T47D alkaline phosphatase assay, antagonist mode in the presence of 1 nM progesterone, 24 hours): 30 nM |
| 164 nM | Cn1c(C#N)ccc1-c1cc(F)c(S(=O)(=O)NCC2CC2)cc1F [Example 62, 4-(5-cyano-1-methyl-1H-pyrrol-2-yl)-N-(cyclopropylmethyl)-2,5-difluorobenzenesulfonamide] |  |
| 99.5 nM | Cn1c(C#N)ccc1-c1ccc(S(N)(=O)=O)cc1 [Example 63, 4-(5-cyano-1-methyl-1H-pyrrol-2-yl)benzenesulfonamide] |  |
|  | CC(=O)[C@H]1CC[C@H]2[C@@H]3CCC4=CC(=O)CC[C@]4(C)[C@H]3CC[C@]12C [Progesterone] | EC50 (Homo sapiens, T47D, reference progestins, agonist mode, typical values): 0.1 to 2 nM |
|  | CC#C[C@]1(O)CC[C@H]2[C@@H]3CCC4=CC(=O)CCC4=C3[C@@H](c3ccc(N(C)C)cc3)C[C@@]21C [RU486, reference compound] | IC50 (Homo sapiens, T47D, 24 h, reference antiprogestin, in the presence of 1 nM progesterone, typical value): 0.1 to 2 nM |
